test system: human hepatocyte; assay: Human hepatocyte stability, predicted hepatic clearance (h-Hept CL predict); assay type: in vitro ADME; details: human hepatocytes, 0.5×10^6 cells/mL, 1 μM, values without asterisk
Outline: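 Cryopreserved human hepatocytes, 0.5×10^6 viable cells/mL in William's E/GlutaMAX, incubated with compound at 1 μM final, duplicates. Sampling at 0-120 min, LC/MS/MS parent loss gives t1/2, converted to CLint and scaled to predicted hepatic clearance (well-stirred model, fub assumed 1).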

hHep Cl (mL/min/kg) | SMILES
L (L (Low Cl)”: Hep Cl (mL/min/kg)<6.3) | Fc1cccc(F)c1C1=Nc2c(Cl)n[nH]c2-c2cc(N3CCOCC3)ccc2N1 (single isomer, unassigned) [Example 35, 4-(3-chloro-5-(2,6-difluorophenyl)-1,6-dihydrobenzo[d]pyrazolo[3,4-f][1,3]diazepin-9-y1)morpholine]
L (L (Low Cl)”: Hep Cl (mL/min/kg)<6.3) | Cc1n[nH]c2c1N=C(c1c(F)cccc1F)Nc1ccc(N3CCO[C@H](C(C)(C)O)C3)cc1-2 (single isomer, unassigned) [Example 36]
L (L (Low Cl)”: Hep Cl (mL/min/kg)<6.3) | Cc1n[nH]c2c1N=C(c1c(F)cccc1F)Nc1c-2cc(N2CCO[C@@H](C(C)(C)O)C2)nc1C (single isomer, unassigned) [Example 39]
L (L (Low Cl)”: Hep Cl (mL/min/kg)<6.3) | Cc1n[nH]c2c1N=C(c1c(F)cccc1F)Nc1cnc(N3CCS(=O)(=O)CC3)cc1-2 [Example 2, 4-[8-(2,6-difluorophenyl)-5-methyl-3,4,7,9,12-pentazatricyclo[8.4.0.02,6]tetradeca-1(10),2(6),4,7,11,13-hexaen-13-y1]-1,4-thiazinane 1,1-dioxide]
L (L (Low Cl)”: Hep Cl (mL/min/kg)<6.3) | Cc1n[nH]c2c1N=C(c1c(F)cccc1F)Nc1cnc(N3C[C@@H]4C[C@H]3CO4)cc1-2 [Example 6, (1S,4S)-5-[8-(2,6-difluorophenyl)-5-methyl-3,4,7,9,12-pentazatricyclo[8.4.0.02,6]tetradeca-1(10),2(6),4,7,11,13-hexaen-13-y1]-2-oxa-5-azabicyclo[2.2.1]heptane]
L (L (Low Cl)”: Hep Cl (mL/min/kg)<6.3) | [2H]C1([2H])OC([2H])([2H])C([2H])([2H])N(c2cc3c(cn2)NC(c2c(F)cccc2F)=Nc2c(C)n[nH]c2-3)C1([2H])[2H] [Example 14, 2,2,3,3,5,5,6,6-octadeuterio-4-[8-(2,6-difluorophenyl)-5-methyl-3,4,7,9,12-pentazatricyclo[8.4.0.02,6]tetradeca-1(10),2(6),4,7,11,13-hexaen-13-yl]morpholine]
L (L (Low Cl)”: Hep Cl (mL/min/kg)<6.3) | Cc1n[nH]c2c1N=C(c1c(F)cccc1F)Nc1cnc(N3CCC[C@@H](C#N)C3)cc1-2 [Example 18, (3R)-1-[8-(2,6-difluorophenyl)-5-methyl-3,4,7,9,12-pentazatricyclo[8.4.0.02,6]tetradeca-1(10),2(6),4,7,11,13-hexaen-13-yl]piperidine-3-carbonitrile]
L (L (Low Cl)”: Hep Cl (mL/min/kg)<6.3) | [2H]C1([2H])OC([2H])([2H])C([2H])([2H])N(c2cc3c(cn2)NC(c2c(F)cccc2F)=Nc2cn[nH]c2-3)C1([2H])[2H] [Example 20, 2,2,3,3,5,5,6,6-octadeuterio-4-[8-(2,6-difluorophenyl)-3,4,7,9,12-pentazatricyclo[8.4.0.02,6]tetradeca-1(10),2(6),4,7,11,13-hexaen-13-yl]morpholine]
L (L (Low Cl)”: Hep Cl (mL/min/kg)<6.3) | Fc1cccc(F)c1C1=Nc2c(Cl)n[nH]c2-c2cc(N3CCOCC3)ncc2N1 [Example 23, 4-(3-chloro-5-(2,6-difluorophenyl)-1,6-dihydropyrazolo[4,3-d]pyrido[4,3-f][1,3]diazepin-9-yl)morpholine]
L (L (Low Cl)”: Hep Cl (mL/min/kg)<6.3) | [2H]C([2H])([2H])c1n[nH]c2c1N=C(c1c(F)cccc1F)Nc1cnc(N3CCO[C@H](C)C3)cc1-2 [Example 27, (2R)-4-[8-(2,6-difluorophenyl)-5-(trideuteriomethyl)-3,4,7,9,12-pentazatricyclo[8.4.0.02,6]tetradeca-1(10),2(6),4,7,11,13-hexaen-13-y1]-2-methyl-morpholine]
L (L (Low Cl)”: Hep Cl (mL/min/kg)<6.3) | Cc1n[nH]c2c1N=C(c1c(F)cccc1F)Nc1cnc(-c3cnn(CC(F)F)c3)cc1-2 [Example 28, 13-[1-(2,2-difluoroethyl)pyrazol-4-y1]-8-(2,6-difluorophenyl)-5-methyl-3,4,7,9,12-pentazatricyclo[8.4.0.02,6]tetradeca-1(10),2(6),4,7,11,13-hexaene]
L (L (Low Cl)”: Hep Cl (mL/min/kg)<6.3) | Fc1cccc(F)c1C1=Nc2cn[nH]c2-c2cc(N3CCOCC3)ncc2N1 [Example 33, 4-[8-(2,6-difluorophenyl)-3,4,7,9,12-pentazatricyclo[8.4.0.02,6]tetradeca-1(10),2(6),4,7,11,13-hexaen-13-yl]morpholine]
L (L (Low Cl)”: Hep Cl (mL/min/kg)<6.3) | Cc1n[nH]c2c1N=C(c1c(F)cccc1F)Nc1c-2cc(N2CCO[C@@H](CO)C2)nc1C [Example 37, (R)-(4-(5-(2,6-difluorophenyl)-3,7-dimethyl-1,6-dihydropyrazolo[4,3-d]pyrido[4,3-f][1,3]diazepin-9-yl)morpholin-2-y1)methanol]

SMILES | hHep Cl (mL/min/kg)
C[C@H]1CN(c2cc3c(cn2)NC(c2c(F)cccc2F)=Nc2c(Cl)n[nH]c2-3)C[C@H](C)O1 [Example 26, (2S,6S)-4-(3-chloro-5-(2,6-difluorophenyl)-1,6-dihydropyrazolo[4,3-d]pyrido[4,3-f][1,3]diazepin-9-yl)-2,6-dimethylmorpholine] | I (I (Intermediate Cl)”: 6.3≤Hep Cl (mL/min/kg)≤14.7)
Cc1n[nH]c2c1N=C(c1c(F)cccc1F)Nc1c-2cc(N2CCC(C)(O)CC2)nc1C [Example 41, 1-(5-(2,6-difluorophenyl)-3,7-dimethyl-1,6-dihydropyrazolo[4,3-d]pyrido[4,3-f][1,3]diazepin-9-yl)-4-methylpiperidin-4-ol] | I (I (Intermediate Cl)”: 6.3≤Hep Cl (mL/min/kg)≤14.7)
Cn1cc(-c2cc3c(cn2)NC(c2c(F)cccc2F)=Nc2c(Cl)n[nH]c2-3)cn1 [Example 54, 3-chloro-5-(2,6-difluorophenyl)-9-(1-methyl-1H-pyrazol-4-yl)-1,6-dihydropyrazolo[4,3-d]pyrido[4,3-f][1,3]diazepine] | I (I (Intermediate Cl)”: 6.3≤Hep Cl (mL/min/kg)≤14.7)
